Where “and” joins values, the source holds several entries; their conditions need not be identical. Identical values can stand only once. Entries after “also recorded” stand apart in the source; their conditions may differ. Like-named read-outs stand apart in the source and are kept apart here.
Assays:
[1] = Intradermal skin testing to vancomycin and teicoplanin (Example 2)
Excerpt: Patients ID 1,3 and 5 also tolerated ingestion challenges with concurrently administered medications.

[2] = test system: PBMCs from HLA-A*32:01 positive vancomycin DRESS patients; assay: IFN-γ release ELISpot assay with four glycopeptide antibiotics (Example 2); format: cell-based, human
[3] = cited from earlier work
[4] = test system: peripheral blood mononuclear cells from vancomycin DRESS patients; assay: Overnight IFN-γ ELISpot assay (Example 1); format: cell-based, human
Description: (§1) Overnight IFN-γ ELISpot assays were performed in triplicate (Mabtech Kit 3420-2H) as previously described^10-12 using negative (unstimulated) and positive (anti-CD3 Mabtech antibody and/or SEB) controls.

[5] = Intradermal skin testing (IDT) (Example 1)
[6] = test system: peripheral blood mononuclear cells; assay: Overnight IFN-γ ELISpot assay (Example 1); format: cell-based, human; settings: thirteen controls (HLA-A*32:01 positive donors, non-DRESS ADR patients, non-HLA matched healthy donors)
Description: as §1

[7] = Time-to-event analysis of vancomycin-exposed BioVU cohort; format: in vivo, human
Description: 137 of the 1,672 HLA-A*32:01 negative individuals were randomly selected to serve as an equal-sized control group. […] ADR latency, defined as the length of time from initiation of vancomycin to symptom onset, as well as any concurrent antimicrobials were documented. Analyses were carried out by Fisher's exact tests, logistic and Cox regression as appropriate in R version 3.4.3.

HLA-A*32:01 = HLA-A*32:01 (Homo sapiens, UniProt P04439, A270S/D101S/D185E/E176V/E277Q/F133L/G103R/G107R/G231S/H175R/I121M/I218V/I322F/K168Q/L105A/L300P/L318F/M331R/P208A/P217A/Q94H/R106L/R138Q/S129P/T104I/T323A/T345S/V100E/V321M/V358M)
Description: High resolution four digit HLA A B C DP DR DQ typing was performed using either sequence-based typing on 454FLX or Illumina Miseq^7,8 or imputed from SNP data from HumanExome BeadChip and GWAS platforms by Expanded Multi-Ethnic Genotyping Array (MEGA^EX, Illumina), HumanOmni-Quad, HumanOmni5-Quad and Human660W-Quad using SNP2HLA as previously described^9. Imputation for HLA-A*32:01 using SNP2HLA has a reported accuracy of 99.46%9. Associations between DRESS and carriage of HLA-A/B/C/DRB1/DQA1/DQB1/DPB1 alleles at the 4-digit level were assessed by conditional logistic regression to accommodate the matching. Analyses were carried out in R version 3.4.3. (R Core Team (2017)). R: A language and environment for statistical computing. R Foundation for Statistical Computing, Vienna, Austria. R-project.org/).

[8] = Clinical characterisation of vancomycin DRESS cases (latency); format: in vivo, human
Excerpt: Retrospective patients were detected using Vanderbilt's BioVU repository, a deidentified electronic health record (EHR) database linked to a DNA biobank in operation since Feb. 7, 2007. Prospective patients with potential DRESS were enrolled to confirm genetic findings from the BioVU analysis using vancomycin-specific immunological studies to support clinical diagnoses. All patients prospectively enrolled from participating centers provided written or electronic consent. Institutional review board (IRB) approvals were in place for the BioVU study and for all sites contributing to the prospective study (Vanderbilt University Medical Center in Nashville (Tennessee, USA), Austin Health, Peter MacCallum Cancer Centre, and Alfred Health in Melbourne (Victoria, Australia), Fiona Stanley Hospital and Royal Perth Hospital in Perth (Western Australia, Australia)). Saliva and blood were routinely collected from prospective patients, processed and stored as repositories of DNA, peripheral blood mononuclear cells (PBMCs) and plasma.
All patients provided written or electronic informed consent. Saliva and blood were collected, processed, and stored as repositories of DNA, peripheral blood mononuclear cells (PBMCs), and plasma.

[9] = Oral / ingestion challenge with concurrently administered medications; settings: patient 18
[10] = PBMCs from Patient 17 (carries risk allele)

## teicoplanin
[1]; in vivo
  delayed intradermal testing: negative
[2]
  vancomycin DRESS cases with a negative IFN-γ ELISpot response: 13/15
  vancomycin DRESS cases with immunological cross-reactivity by ELISpot: 13%
  vancomycin DRESS cases with negative ELISpot / no cross-reactivity: approximately 87%
[2]; Patient ID 8 and 15
  cross-reactivity with vancomycin in IFN-γ ELISpot: cross-reactivity
[2]; Patient ID 9, 10, and 11
  IFN-γ ELISpot response: negative IFN-γ ELISpot
[2]; positive >50 SFU/million cells
  vancomycin DRESS cases with a positive IFN-γ ELISpot response: 2/15

## CN[C@H]1C(=O)N[C@@H]2Cc3ccc(cc3)Oc3cc4cc(c3O[C@@H]3O[C@H](C(=O)O)[C@@H](O)[C@H](O)[C@H]3NC(=O)CCCCCCCCC(C)C)Oc3ccc(cc3Cl)[C@@H](O)[C@@H]3NC(=O)[C@H](NC(=O)[C@@H]4NC(=O)[C@@H](NC2=O)c2cc(cc(O)c2Cl)Oc2cc1ccc2O)c1ccc(O)c(c1)-c1c(O[C@H]2O[C@H](CO)[C@@H](O)[C@H](O)[C@@H]2O)cc(O)cc1[C@@H](C(=O)NCCCN(C)C)NC3=O [dalbavancin]
[2]
  vancomycin DRESS cases with negative ELISpot / no cross-reactivity: 100%
[3]
  half-life: 14 days

## CCCCCCCCCCNCCN[C@@]1(C)C[C@H](O[C@H]2[C@H](Oc3c4cc5cc3Oc3ccc(cc3Cl)[C@@H](O)[C@@H](NC(=O)[C@@H](CC(C)C)NC)C(=O)N[C@@H](CC(N)=O)C(=O)N[C@H]5C(=O)N[C@H]3C(=O)N[C@H](C(=O)N[C@H](C(=O)O)c5cc(O)c(CNCP(=O)(O)O)c(O)c5-c5cc3ccc5O)[C@H](O)c3ccc(c(Cl)c3)O4)O[C@H](CO)[C@@H](O)[C@@H]2O)O[C@@H](C)[C@H]1O [telavancin]
[2]
  cross-reactivity with vancomycin in IFN-γ ELISpot: cross-reactivity
  vancomycin DRESS cases with a negative IFN-γ ELISpot response: 6/9
  vancomycin DRESS cases with a positive IFN-γ ELISpot response: three
  vancomycin DRESS cases with immunological cross-reactivity by ELISpot: 13%
  vancomycin DRESS cases with negative ELISpot / no cross-reactivity: ~67%

## CO[C@H]1/C=C/O[C@@]2(C)Oc3c(C)c(O)c4c(O)c(c(/C=N/N5CCN(C)CC5)c(O)c4c3C2=O)NC(=O)/C(C)=C\C=C\[C@H](C)[C@H](O)[C@@H](C)[C@@H](O)[C@@H](C)[C@H](OC(C)=O)[C@@H]1C [rifampin]
[4]; [10]
  IFN-γ ELISpot response: positive response
[4]; cells from Patient 4 and other healthy donors
  IFN-γ ELISpot response: did not respond
[2]; PBMCs from Patient 13 and other healthy donors
  IFN-γ ELISpot response: did not respond
[2]; PBMCs from Patient ID 2, rifampin at 5 μg/mL
  IFN-γ ELISpot response: positive response

## CN[C@H](CC(C)C)C(=O)N[C@H]1C(=O)N[C@@H](CC(N)=O)C(=O)N[C@H]2C(=O)N[C@H]3C(=O)N[C@H](C(=O)N[C@H](C(=O)O)c4cc(O)cc(O)c4-c4cc3ccc4O)[C@H](O)c3ccc(c(Cl)c3)Oc3cc2cc(c3O[C@@H]2O[C@H](CO)[C@@H](O)[C@H](O)[C@H]2O[C@H]2C[C@](C)(N)[C@H](O)[C@H](C)O2)Oc2ccc(cc2Cl)[C@H]1O [vancomycin]
[5]; HLA-A*32:01 positive individuals not exposed to vancomycin
  intradermal challenge response: negative responses
[5]; both HLA-A*32:01 positive individuals (patient 18 and control C51)
  immediate IDT response at 20 minutes: strong immediate histamine response
[5]; patient 18 (history of DRESS), 0.5, 5 and 50 mg/mL
  delayed IDT at 24 and 48 hours: delayed positive IDT; also recorded: concentration dependent induration of the skin
[6]
  IFN-γ ELISpot response in controls: none demonstrated a positive vancomycin IFN-γ ELISpot; also recorded: None of the controls released IFN-γ
[4]; [10]
  IFN-γ ELISpot response: did respond
[4]; PBMCs from patient 21 (HLA-A*32:01 negative)
  IFN-γ ELISpot response: persistently negative
[4]; PBMCs of prospectively enrolled vancomycin DRESS cases, positive >50 SFU/million cells
  DRESS cases with a positive IFN-γ ELISpot response: 12/14
[4]; patient and control PBMCs, also 5 μg/mL and 50 μg/mL, data not shown
  IFN-γ ELISpot concentration dependence: dose-dependent response
[4]; three ELISpot positive patients, time points distant from the initial reaction
  IFN-γ ELISpot at repeat blood draws: repeat positive results
DRESS cases, n=116
  mean vancomycin trough: 17.2 µg/mL
  range of vancomycin trough: 3 to 44 µg/mL
Tolerant controls, n=644
  mean vancomycin trough: 19.6 µg/mL
  median vancomycin trough: 18 µg/mL
  range of vancomycin trough: 2 to 86 µg/mL
[1]; Patient ID 9
  delayed intradermal testing: positive delayed intradermal testing
[1]; Patient ID 9, 10, and 11
  delayed intradermal testing: positive delayed intradermal testing
[1]; Patient ID 15, approximately 6 months after vancomycin DRESS
  intradermal skin test response: positive responses
[2]
  IFN-γ ELISpot concentration dependence: dose dependent manner
  vancomycin DRESS cases with a positive IFN-γ ELISpot response: 15 (100%)
[7]; 119 HLA-A*32:01 negative individuals, at least one week of uninterrupted vancomycin
  development of DRESS or symptoms suggestive of DRESS: none
[7]; HLA-A*32:01 carriers, at four weeks of vancomycin
  estimated probability of developing DRESS: 19.2% and ~20%
[7]; vancomycin-exposed BioVU cohort
  median time to DRESS symptoms after vancomycin initiation: 18 days
HLA-A*32:01; all DRESS cases
  HLA-A*32:01 carriage in vancomycin DRESS cases: 19/23
HLA-A*32:01; controls matched to all cases
  HLA-A*32:01 carriage in matched vancomycin tolerant controls: 0/46
HLA-A*32:01; controls matched to immunologically confirmed cases
  HLA-A*32:01 carriage in matched controls: 0/24
HLA-A*32:01; immunologically confirmed cases
  HLA-A*32:01 carriage in vancomycin IFN-γ ELISpot positive patients: 11/12
[8]; 15 patients (Example 2)
  median latency period from vancomycin initiation to the first symptoms of DRESS: 21 days
[8]; 23 DRESS cases (Example 1)
  mean latency period to first symptoms of DRESS: 22.9 days
  median latency period from vancomycin initiation to the first symptoms of DRESS: 21 days
  range of latency period to first symptoms of DRESS: 14 to 50 days

## C[C@H]1COc2c(N3CCN(C)CC3)c(F)cc3c(=O)c(C(=O)O)cn1c23 [levofloxacin]
[9]
  oral challenge / rechallenge: negative; also recorded: successfully rechallenged
